From patent publication US20250019368A1, “COMPOUND AND PRODUCTION METHOD THEREOF, POLYMERIZABLE COMPOSITION, RESIN COMPOSITION, POLYMER, CURED SUBSTANCE, AND LAMINATE” (FUJIFILM Corporation, priority 2022, published 2025) come the findings set out here.

What all share (assay type): physicochemical
Data set [1] in a line: Absorption spectrum of the compound in chloroform solution (spectral characteristics). To be noted: 5×10^−6 mol/L, 1 cm cell; for ε (molar absorption coefficient): at λmax. As to the method: An absorption spectrum of each of the compounds of Examples 1 to 3 and Comparative Examples 1 to 3 was measured according to the following procedure, and the maximal absorption wavelength ([…]), the molar absorption coefficient ([…]), and the width of the absorption spectrum at an absorbance corresponding to ½ of the maximum absorbance (that is, the half-width) were obtained.
Using chloroform as a solvent, a solution in which the compound was dissolved was prepared such that the concentration of the compound in the chloroform was 5×10^−6 mol/L (liter; the same applies hereinafter). Each prepared solution was put into a 1 cm cell, and an absorption spectrum was measured using a spectrophotometer [product name: U-4100, manufactured by Hitachi, Ltd.] as a measurement device.

Data set [2] can be described thus: Solubility in ethyl acetate, visual check for undissolved residue. To be noted: 20.0 mg in 2 mL ethyl acetate, stirred at 40° C. for 10 minutes; no residue means solubility 1% by mass or more. As to the method:
The solubility of each compound of Examples 1 to 3 and Comparative Examples 1 to 3 in an organic solvent was measured according to the following procedure.
20.0 mg of the compound was weighed and placed in a container, 2 mL of ethyl acetate was added thereto, and the mixture was stirred at 40° C. for 10 minutes. After the stirring, the presence or absence of undissolved residue of the compound was visually observed. The fact that no undissolved residue of the compound was observed means that the solubility of the compound was 1% by mass or more.

A short description of data set [3]: Solubility in the organic solvents of the polymerizable composition. To be noted: solvent (1) propylene glycol monomethyl ether acetate and solvent (2) cyclohexanone, polymerizable composition P4. From the text:
A polymerizable composition P4 was obtained in the same manner as in the preparation of the polymerizable composition P1, except that, in the preparation of the polymerizable composition P1, the “exemplary compound 1-13” was changed to the “comparative compound R-3”.
A cured film E4 was obtained in the same manner as in the production of the cured film E1, except that, in the production of the cured film E1, the “polymerizable composition P1” was changed to the “polymerizable composition P4”. However, since the “comparative compound R-3” had extremely low solubility in the organic solvent [that is, the solvent (1) and the solvent (2)], the obtained photocured film D4 and cured film E4 were not films that could be evaluated for the spectral characteristics, so that the following evaluation tests were not performed.

With `C=C(C)C(=O)OCCOC(=O)C1=C(C)/C(=C2\C(=O)C(c3[nH]c(C)c(CC)c3C)=C2O)N=C1C` [Exemplary compound 1-13], in data set [1], the “Half-width (width of absorption spectrum at ½ of maximum absorbance)” value (shortened to “Half-width”) was 25 nm, the “λmax (maximal absorption wavelength)” value is reported as 556 nm and the “ε (molar absorption coefficient)” value was 185,000 L/(mol · cm). Moreover, the “Solubility in ethyl acetate (presence or absence of undissolved residue)” value (“Solubility in ethyl acetate” below) in data set [2] is “completely dissolved”.
On the same counts, the results for `C=Cc1ccc(Cn2c(C)c(CC)c(C)c2C2=C([O-])/C(=C3/C(C)=C(CC)C(C)=[N+]3Cc3ccc(C=C)cc3)C2=O)cc1` [Exemplary compound 1-30] are 29 nm, 591 nm, 158,000 L/(mol · cm) and “completely dissolved”.
On the same counts, the results for `CCC1=C(C)/C(=C2\C(=O)C(c3[nH]c(C)c(CC)c3C)=C2O)N=C1C` [R-1] are 23 nm, 564 nm, 238,000 L/(mol · cm) and “not completely dissolved”.
For the compound `C=C(C)C(=O)OCCN(CCOC(=O)C(=C)C)c1ccc(C2=C([O-])/C(=C3\C=CC(=[N+](CCOC(=O)C(=C)C)CCOC(=O)C(=C)C)C=C3NC(C)=O)C2=O)c(NC(C)=O)c1` [R-2], in data set [1], the “Half-width” value is recorded as 27 nm, the “λmax (maximal absorption wavelength)” value was determined as 667 nm and the “ε (molar absorption coefficient)” value is on record as 363,000 L/(mol · cm). Also, the “Solubility in ethyl acetate” value in data set [2] is on record as “not completely dissolved”.
On to `CCN(CC)c1ccc(C2=C([O-])/C(=C3\C=CC(=[N+](CC)CC)C=C3NC(C)=O)C2=O)c(NC(C)=O)c1` [R-3], for which, in data set [1], the “Half-width” value was 27 nm, the “λmax (maximal absorption wavelength)” value was 676 nm and the “ε (molar absorption coefficient)” value is 356,000 L/(mol · cm). The “Solubility in ethyl acetate” value in data set [2] is reported as “not completely dissolved”. The “Solubility in the organic solvent” value in data set [3] was “extremely low”.
